In ChEMBL document CHEMBL1201862, “PubChem BioAssay data set” (2004):
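Compound exposure: 48 hours, 5 concentrations, 96-well plates. GI50: concentration for 50% inhibition of growth.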 The source made the active and inactive calls. No stated cut-off is given here; in the data, active = GI50 up to about 1.1 µM and inactive = higher.

Key:
Assay in all cases: growth of human tumour cells (NCI), 48 h
[1] = test system: CAKI-1
[2] = test system: NCI-H522
[3] = test system: M14
[4] = test system: BT-549
[5] = test system: HL-60
[6] = test system: SK-MEL-5
[7] = test system: OVCAR-8
[8] = test system: SR
[9] = test system: K562
[10] = test system: HOP-92
[11] = test system: KM12
[12] = test system: RPMI-8226
[13] = test system: MDA-MB-435
[14] = test system: ACHN
[15] = test system: MDA-MB-231
[16] = test system: HCC 2998
[17] = test system: HT-29
[18] = test system: SNB-19
[19] = test system: LOX IMVI
[20] = test system: HCT-116

Row | Structure (SMILES) | GI50 [1] | GI50 [2] | GI50 [3] | GI50 [4] | GI50 [5] | GI50 [6] | GI50 [7] | GI50 [8] | GI50 [9] | GI50 [10] | GI50 [11] | GI50 [12] | GI50 [13] | GI50 [14] | GI50 [15] | GI50 [16] | GI50 [17] | GI50 [18] | GI50 [19] | GI50 [20]
1 | CCSC(=O)N1c2ccc(OC)cc2C=CC1C#N (stereo not given) | < 0.01 µM (active) | 0.00698 µM (active) | 0.00601 µM (active) | < 0.01 µM (active) | 0.00347 µM (active) | 0.00152 µM (active) | 0.00569 µM (active) | 0.000843 µM (active) | 0.00632 µM (active) | 0.1 µM (active) | 0.00449 µM (active) | 0.00273 µM (active) | 0.00292 µM (active) | 0.0041 µM (active) | 0.00589 µM (active) | 0.00895 µM (active) | 0.00139 µM (active) | 0.0176 µM (active) | 0.00424 µM (active) | 0.000509 µM (active)
2 | CN(C)c1ccc(C=c2c3ccccc3n3c2c2ccccc2[n+]3C)cc1 | 1.08 µM (active) | 0.174 µM (active) | 0.493 µM (active) | 0.274 µM (active) | 0.051 µM (active) | 0.112 µM (active) | 0.364 µM (active) | 0.199 µM (active) | 0.134 µM (active) | 0.421 µM (active) | 1.01 µM (active) | 0.138 µM (active) | 0.428 µM (active) | 0.867 µM (active) | 0.877 µM (active) | 0.671 µM (active) | 0.689 µM (active) | 1.25 µM (inactive) | 0.597 µM (active) | 0.354 µM (active)
3 | O=C1/C(=C\c2ccccc2)c2ccccc2N1Cc1ccccc1 | 6.67 µM (inactive) | 10.1 µM (inactive) | 9.16 µM (inactive) | 3.61 µM (inactive) | 4.08 µM (inactive) | 11 µM (inactive) | 11.6 µM (inactive) | 2.04 µM (inactive) | 2.88 µM (inactive) | 3.85 µM (inactive) | 6.04 µM (inactive) | 2.74 µM (inactive) | 3.72 µM (inactive) | 12.5 µM (inactive) | 6.89 µM (inactive) | 11.8 µM (inactive) | 6.15 µM (inactive) | 10.3 µM (inactive) | 7.45 µM (inactive) | 4.72 µM (inactive)
4 | C=C1CC2CCCC12C=O (stereo not given) | > 10 µM (inactive) | > 10 µM (inactive) | > 10 µM (inactive) | > 10 µM (inactive) | > 10 µM (inactive) | > 10 µM (inactive) | > 10 µM (inactive) | > 10 µM (inactive) | > 10 µM (inactive) | > 10 µM (inactive) | > 10 µM (inactive) | > 10 µM (inactive) | > 10 µM (inactive) | > 10 µM (inactive) | > 10 µM (inactive) | > 10 µM (inactive) | > 10 µM (inactive) | > 10 µM (inactive) | > 10 µM (inactive) | > 10 µM (inactive)
5 | CN(CCNC(=O)c1c[nH]c2c1Cc1ccccc1-2)CCNC(=O)c1c[nH]c2c1Cc1ccccc1-2 | 48.6 µM (inactive) | 19.6 µM (inactive) | 30.8 µM (inactive) | 36.6 µM (inactive) | 31 µM (inactive) | 21.8 µM (inactive) | 32.1 µM (inactive) | 29.6 µM (inactive) | 30.3 µM (inactive) | 22.6 µM (inactive) | 33.3 µM (inactive) | 26.5 µM (inactive) | 17.1 µM (inactive) | 43.6 µM (inactive) | 28.6 µM (inactive) | 52.6 µM (inactive) | 35.1 µM (inactive) | 58.2 µM (inactive) | 29.9 µM (inactive) | 36.1 µM (inactive)
6 | NS(=O)(=O)c1ccc(NNc2c3ccccc3nc3c(C(=O)Nc4ccc(S(=O)(=O)Nc5ncccn5)cc4)cccc23)cc1 | > 25 µM (inactive) | > 25 µM (inactive) | > 25 µM (inactive) | > 25 µM (inactive) | > 25 µM (inactive) | > 25 µM (inactive) | > 25 µM (inactive) | > 25 µM (inactive) | > 25 µM (inactive) | > 25 µM (inactive) | > 25 µM (inactive) | > 25 µM (inactive) | > 25 µM (inactive) | > 25 µM (inactive) | > 25 µM (inactive) | > 25 µM (inactive) | 10.2 µM (inactive) | > 25 µM (inactive) | > 25 µM (inactive) | > 25 µM (inactive)
7 | O=C1CC(CC(O)[C@@H]2CCCC[C@@H]2O)CC(=O)N1c1ccccc1 (stereo not given in full) | > 100 µM (inactive) | > 100 µM (inactive) | > 100 µM (inactive) | > 100 µM (inactive) | > 100 µM (inactive) | > 100 µM (inactive) | > 100 µM (inactive) | > 100 µM (inactive) | > 100 µM (inactive) | 83.8 µM (inactive) | > 100 µM (inactive) | > 100 µM (inactive) | > 100 µM (inactive) | > 100 µM (inactive) | > 100 µM (inactive) | > 100 µM (inactive) | > 100 µM (inactive) | > 100 µM (inactive) | > 100 µM (inactive) | > 100 µM (inactive)
8 | COc1ccccc1CNCc1nc2ccccc2[nH]1 | > 100 µM (inactive) | > 100 µM (inactive) | > 100 µM (inactive) | > 100 µM (inactive) | 80.5 µM (inactive) | 48.5 µM (inactive) | > 100 µM (inactive) | > 100 µM (inactive) | > 100 µM (inactive) | > 100 µM (inactive) | > 100 µM (inactive) | > 100 µM (inactive) | > 100 µM (inactive) | > 100 µM (inactive) | > 100 µM (inactive) | > 100 µM (inactive) | 78.7 µM (inactive) | > 100 µM (inactive) | > 100 µM (inactive) | > 100 µM (inactive)
9 | CCOCC(=O)N[C@H]1CCc2cc(OC(=O)COCC)c(OC)c(OC)c2-c2ccc(SC)c(=O)cc21 | 0.15 µM (active) | 0.0151 µM (active) | 0.0256 µM (active) | 0.0752 µM (active) | 0.00473 µM (active) | 0.00478 µM (active) | 0.0307 µM (active) | 0.0159 µM (active) | 0.0126 µM (active) | 0.0248 µM (active) | 0.00708 µM (active) | 0.0299 µM (active) | 0.00195 µM (active) | 0.0655 µM (active) | 0.0274 µM (active) | 0.0264 µM (active) | 0.0177 µM (active) | 0.885 µM (active) | 0.0303 µM (active) | 0.0175 µM (active)
10 | Cn1c2c3ccc(Cl)cc3nc-2c(Cl)c2ccccc21 | 17.3 µM (inactive) | 17.9 µM (inactive) | 20.9 µM (inactive) | 24.3 µM (inactive) | 24.2 µM (inactive) | 16.4 µM (inactive) | 20.2 µM (inactive) | 6.15 µM (inactive) | 6.01 µM (inactive) | 15.7 µM (inactive) | 16.9 µM (inactive) | 4.31 µM (inactive) | 18.1 µM (inactive) | 13.5 µM (inactive) | 23.7 µM (inactive) | 5.38 µM (inactive) | 15.3 µM (inactive) | 22.9 µM (inactive) | 13.3 µM (inactive) | 1.71 µM (inactive)
11 | Cn1c(SCc2c[nH]c3ccccc23)nnc1-c1ccc(Cl)cc1Cl | 20 µM (inactive) | 12.7 µM (inactive) | 11.4 µM (inactive) | 18.3 µM (inactive) | 10.4 µM (inactive) | 14.5 µM (inactive) | 21.2 µM (inactive) | 4.23 µM (inactive) | 4.23 µM (inactive) | 12.6 µM (inactive) | 9.82 µM (inactive) | 13.1 µM (inactive) | 3 µM (inactive) | 23.9 µM (inactive) | 10.5 µM (inactive) | 12 µM (inactive) | 17.3 µM (inactive) | 16.8 µM (inactive) | 5.18 µM (inactive) | 23.4 µM (inactive)
12 | Nc1ccc(Cn2ccc3c4c(N)nc(N)nc4ccc32)cc1 | 0.0119 µM (active) | 0.0847 µM (active) | < 0.0114 µM (active) | 0.219 µM (active) | < 0.01 µM (active) | < 0.01 µM (active) | < 0.0127 µM (active) | 0.0393 µM (active) | < 0.01 µM (active) | 0.71 µM (active) | 0.0321 µM (active) | 0.165 µM (active) | < 0.01 µM (active) | < 0.01 µM (active) | 1.06 µM (active) | < 0.0268 µM (active) | < 0.01 µM (active) | 0.3 µM (active) | < 0.01 µM (active) | < 0.01 µM (active)
13 | C#CCNC(CS)C(=O)O (stereo not given) | > 100 µM (inactive) | > 100 µM (inactive) | > 100 µM (inactive) | > 100 µM (inactive) | > 100 µM (inactive) | > 100 µM (inactive) | > 100 µM (inactive) | > 100 µM (inactive) | > 100 µM (inactive) | > 100 µM (inactive) | > 100 µM (inactive) | > 100 µM (inactive) | > 100 µM (inactive) | > 100 µM (inactive) | > 100 µM (inactive) | > 100 µM (inactive) | > 100 µM (inactive) | > 100 µM (inactive) | > 100 µM (inactive) | > 100 µM (inactive)
14 | CCC(C)[C@@H](NC1=C(Cl)C(=O)c2c(O)ccc(O)c2C1=O)C(=O)OC (stereo not given in full) | 6.46 µM (inactive) | 2.67 µM (inactive) | 2.31 µM (inactive) | 3.43 µM (inactive) | 2 µM (inactive) | 2.02 µM (inactive) | 3.15 µM (inactive) | 1.06 µM (active) | 3.59 µM (inactive) | > 10 µM (inactive) | 3.92 µM (inactive) | 2.28 µM (inactive) | 3.55 µM (inactive) | 3.91 µM (inactive) | 2.52 µM (inactive) | > 10 µM (inactive) | 3.01 µM (inactive) | > 10 µM (inactive) | 3.21 µM (inactive) | 2.4 µM (inactive)
